Results reported in US20240270762A1, “PENICILLIN-BINDING PROTEIN INHIBITORS” (priority 2021, published 2024).
≈ marks a conversion by molar mass, not a printed value.

Columns and labels:
[1] = tested on: K. pneumoniae UMM; assay: microbe, parasite or virus in culture; type: cell-based; settings: Klebsiella pneumoniae, read-out: MIC K. pneumoniae UMM
[2] = tested on: N. gonorrhoeae WHO K; assay: Liquid broth MIC in Fastidious broth; settings: Neisseria gonorrhoeae, read-out: Minimum Inhibitory Concentration (MIC), N. gonorrhoeae WHO K
[3] = tested on: P. aeruginosa ATCC 35151; assay: microbe, parasite or virus in culture; type: cell-based; settings: Pseudomonas aeruginosa, ATCC35151, read-out: MIC P. aeruginosa ATCC 35151
[4] = tested on: A. baumannii ATCC 19606; assay: microbe, parasite or virus in culture; type: cell-based; settings: Acinetobacter baumannii, ATCC19606, read-out: MIC, A. baumannii ATCC 19606
[5] = biological target: T1, PBP3 from Escherichia coli (K-12) (Escherichia coli, UniProt P0AD68); assay: Bocillin-FL fluorescence polarization competition binding, E. coli PBP3
T1 construct: made in house
Procedure, shortened: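 Purified PBP was preincubated with inhibitor (E. coli PBP3 1.5 μM, 30 min; P. aeruginosa PBP3 0.75 μM, A. baumannii PBP3 0.2 μM and PBP1a 1 μM, 15 min), then Bocillin-FL (0.1 μM; 0.05 μM for PBP1a) added and FP read up to 60 min. EC50 = 50% loss of bound probe.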

[6] = tested on: N. gonorrhoeae ATCC 49226; assay: Liquid broth MIC in Fastidious broth; settings: Neisseria gonorrhoeae, ATCC49226, read-out: Minimum Inhibitory Concentration (MIC), N. gonorrhoeae ATCC 49226
[7] = tested on: N. gonorrhoeae WHO Z; assay: Liquid broth MIC in Fastidious broth; settings: Neisseria gonorrhoeae, read-out: Minimum Inhibitory Concentration (MIC), N. gonorrhoeae WHO Z
[8] = tested on: N. gonorrhoeae WHO M; assay: Liquid broth MIC in Fastidious broth; settings: Neisseria gonorrhoeae, read-out: Minimum Inhibitory Concentration (MIC), N. gonorrhoeae WHO M
[9] = tested on: N. gonorrhoeae WHO Q; assay: Liquid broth MIC in Fastidious broth; settings: Neisseria gonorrhoeae, read-out: Minimum Inhibitory Concentration (MIC), N. gonorrhoeae WHO Q
[10] = tested on: N. gonorrhoeae WHO L; assay: Liquid broth MIC in Fastidious broth; settings: Neisseria gonorrhoeae, read-out: Minimum Inhibitory Concentration (MIC), N. gonorrhoeae WHO L
[11] = tested on: E. coli AG100A; assay: Broth microdilution MIC in CAMHB; type: cell-based; settings: Escherichia coli, read-out: MIC E. coli AG100A
[12] = tested on: N. gonorrhoeae CDC-0197; assay: Liquid broth MIC in Fastidious broth; settings: Neisseria gonorrhoeae, CDC0197, read-out: Minimum Inhibitory Concentration (MIC), N. gonorrhoeae CDC-0197
[13] = tested on: N. gonorrhoeae MS11; assay: Liquid broth MIC in Fastidious broth; settings: Neisseria gonorrhoeae, MS11, read-out: Minimum Inhibitory Concentration (MIC), N. gonorrhoeae MS11
[14] = tested on: E. coli ATCC 25922; assay: microbe, parasite or virus in culture; type: cell-based; settings: Escherichia coli, ATCC25922, read-out: MIC E. coli 25922
[15] = tested on: K. pneumoniae SI-117; assay: microbe, parasite or virus in culture; type: cell-based; settings: Klebsiella pneumoniae, SI117, read-out: MIC K. pneumoniae SI-117
[16] = tested on: E. coli D22; assay: microbe, parasite or virus in culture; type: cell-based; settings: Escherichia coli, D22, read-out: MIC E. coli D22

T1 sequence (P0AD68 1-577): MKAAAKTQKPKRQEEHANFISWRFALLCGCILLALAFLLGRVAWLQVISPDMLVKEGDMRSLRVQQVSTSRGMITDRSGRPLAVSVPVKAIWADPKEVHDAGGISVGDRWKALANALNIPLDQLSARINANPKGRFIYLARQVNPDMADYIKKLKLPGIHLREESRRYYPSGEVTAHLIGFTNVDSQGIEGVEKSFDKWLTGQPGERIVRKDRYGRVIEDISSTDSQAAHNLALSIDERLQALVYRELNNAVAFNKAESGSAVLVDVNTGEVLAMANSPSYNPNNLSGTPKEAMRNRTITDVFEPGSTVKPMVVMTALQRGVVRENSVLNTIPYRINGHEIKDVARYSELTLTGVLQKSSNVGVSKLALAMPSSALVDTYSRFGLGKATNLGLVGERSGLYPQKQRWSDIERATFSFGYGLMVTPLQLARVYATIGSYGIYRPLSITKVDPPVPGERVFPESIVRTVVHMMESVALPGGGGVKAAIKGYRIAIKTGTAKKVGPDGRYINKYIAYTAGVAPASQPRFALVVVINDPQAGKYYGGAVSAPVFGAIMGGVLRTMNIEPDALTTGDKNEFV

| SMILES | MIC [1] | MIC [2] | MIC [3] | MIC [4] | EC50 [5] | MIC [6] | MIC [7] | MIC [8] | MIC [9] | MIC [10] | MIC [11] | MIC [12] | MIC [13] | MIC [14] | MIC [15] | MIC [16] |
| --- | --- | --- | --- | --- | --- | --- | --- | --- | --- | --- | --- | --- | --- | --- | --- | --- |
| O=C(O)c1cccc2c1OB(O)[C@@H](NC(=O)C(NC(=O)N1CCCNC1=O)c1ccc(P(=O)(O)O)cc1)C2 (stereo partly drawn) [Example 56, (3R)-2-hydroxy-3-(2-(2-oxohexahydropyrimidine-1-carboxamido)-2-(4-phosphonophenyl)acetamido)-3,4-dihydro-2H-benzo[e][1,2]oxaborinine-8-carboxylic acid] | > 128 µg/mL | 16 to 32 µg/mL (≈ 29.3 to 58.6 µM) | < 1 µg/mL | > 128 µg/mL | 10 to 50 µM | 1 to 2 µg/mL (≈ 1.83 to 3.66 µM) | 4 to 8 µg/mL (≈ 7.32 to 14.6 µM) | < 1 µg/mL | 4 to 8 µg/mL (≈ 7.32 to 14.6 µM) | 16 to 32 µg/mL (≈ 29.3 to 58.6 µM) | 32 to 64 µg/mL (≈ 58.6 to 117 µM) | 4 to 8 µg/mL (≈ 7.32 to 14.6 µM) | 1 to 2 µg/mL (≈ 1.83 to 3.66 µM) | > 128 µg/mL | > 128 µg/mL | 8 to 16 µg/mL (≈ 14.6 to 29.3 µM) |
| CS(=O)(=O)NC(C(=O)N[C@H]1Cc2cccc(C(=O)O)c2OB1O)c1ccc(P(=O)(O)O)cc1 (stereo partly drawn) [Example 59, (3R)-2-hydroxy-3-(2-(methylsulfonamido)-2-(4-phosphonophenyl)acetamido)-3,4-dihydro-2H-benzo[e][1,2]oxaborinine-8-carboxylic acid] | > 128 µg/mL | 16 to 32 µg/mL (≈ 32.1 to 64.2 µM) | 32 to 64 µg/mL (≈ 64.2 to 128 µM) | > 128 µg/mL | > 250 µM | 16 to 32 µg/mL (≈ 32.1 to 64.2 µM) | 16 to 32 µg/mL (≈ 32.1 to 64.2 µM) | 4 to 8 µg/mL (≈ 8.03 to 16.1 µM) | 16 to 32 µg/mL (≈ 32.1 to 64.2 µM) | 16 to 32 µg/mL (≈ 32.1 to 64.2 µM) | > 128 µg/mL | 16 to 32 µg/mL (≈ 32.1 to 64.2 µM) | 16 to 32 µg/mL (≈ 32.1 to 64.2 µM) | > 128 µg/mL | > 128 µg/mL | > 128 µg/mL |
| CCN1CCN(C(=O)NC(C(=O)N[C@H]2Cc3cccc(C(=O)O)c3OB2O)c2ccc(CP(=O)(O)O)cc2)C(=O)C1=O (stereo partly drawn) [Example 20, (3R)-3-(2-(4-ethyl-2,3-dioxopiperazine-1-carboxamido)-2-(4-(phosphonomethyl)phenyl)acetamido)-2-hydroxy-3,4-dihydro-2H-benzo[e][1,2]oxaborinine-8-carboxylic acid] | 32 to 64 µg/mL (≈ 53.1 to 106 µM) | 1 to 2 µg/mL (≈ 1.66 to 3.32 µM) | < 1 µg/mL | 32 to 64 µg/mL (≈ 53.1 to 106 µM) | < 10 µM | < 1 µg/mL | < 1 µg/mL | < 1 µg/mL | < 1 µg/mL | 1 to 2 µg/mL (≈ 1.66 to 3.32 µM) | 8 to 16 µg/mL (≈ 13.3 to 26.6 µM) | < 1 µg/mL | < 1 µg/mL | 8 to 16 µg/mL (≈ 13.3 to 26.6 µM) | > 128 µg/mL | 2 to 4 µg/mL (≈ 3.32 to 6.64 µM) |
| O=C(O)c1cccc2c1OB(O)[C@@H](NC(=O)C(NC(=O)c1cnc[nH]c1=O)c1ccc(P(=O)(O)O)cc1)C2 (stereo partly drawn) [Example 176, (3R)-2-hydroxy-3-(2-(6-oxo-1,6-dihydropyrimidine-5-carboxamido)-2-(4-phosphonophenyl)acetamido)-3,4-dihydro-2H-benzo[e][1,2]oxaborinine-8-carboxylic acid] | > 128 µg/mL | 16 to 32 µg/mL (≈ 29.5 to 59 µM) | 2 to 4 µg/mL (≈ 3.69 to 7.38 µM) | > 128 µg/mL | 50 to 250 µM | 4 to 8 µg/mL (≈ 7.38 to 14.8 µM) | 16 to 32 µg/mL (≈ 29.5 to 59 µM) | 1 to 2 µg/mL (≈ 1.84 to 3.69 µM) | 16 to 32 µg/mL (≈ 29.5 to 59 µM) | 16 to 32 µg/mL (≈ 29.5 to 59 µM) | > 128 µg/mL | 16 to 32 µg/mL (≈ 29.5 to 59 µM) | 4 to 8 µg/mL (≈ 7.38 to 14.8 µM) | > 128 µg/mL | > 128 µg/mL | > 128 µg/mL |
| CS(=O)(=O)N1CCC[C@H]1C(=O)N[C@@H](C(=O)N[C@H]1Cc2cccc(C(=O)O)c2OB1O)c1ccc(P(=O)(O)O)cc1 [Example 44, (R)-2-hydroxy-3-((R)-2-((S)-1-(methylsulfonyl)pyrrolidine-2-carboxamido)-2-(4-phosphonophenyl)acetamido)-3,4-dihydro-2H-benzo[e][1,2]oxaborinine-8-carboxylic acid] | > 128 µg/mL | 4 to 8 µg/mL (≈ 6.72 to 13.4 µM) | 2 to 4 µg/mL (≈ 3.36 to 6.72 µM) | > 128 µg/mL | 10 to 50 µM | 1 to 2 µg/mL (≈ 1.68 to 3.36 µM) | 1 to 2 µg/mL (≈ 1.68 to 3.36 µM) | < 1 µg/mL | 1 to 2 µg/mL (≈ 1.68 to 3.36 µM) | 16 to 32 µg/mL (≈ 26.9 to 53.8 µM) | 32 to 64 µg/mL (≈ 53.8 to 108 µM) | 1 to 2 µg/mL (≈ 1.68 to 3.36 µM) | 1 to 2 µg/mL (≈ 1.68 to 3.36 µM) | > 128 µg/mL | > 128 µg/mL | 8 to 16 µg/mL (≈ 13.4 to 26.9 µM) |
| N[C@@H](C(=O)N[C@H]1Cc2cccc(C(=O)O)c2OB1O)c1ccc(P(=O)(O)O)cc1 (single isomer, unassigned) [Example 171] | > 128 µg/mL | > 64 µg/mL | > 128 µg/mL | > 128 µg/mL | > 250 µM | > 64 µg/mL | > 64 µg/mL | > 64 µg/mL | > 64 µg/mL | > 64 µg/mL | > 128 µg/mL | > 64 µg/mL | > 64 µg/mL | > 128 µg/mL | > 128 µg/mL | > 128 µg/mL |
